Assay results: the NIST ThermoML archive (doi:10.1016/j.tca.2011.01.001)

Tests used:
[1] = Molar enthalpy of transition or fusion; conditions: Crystal; DSC

O=C(O)c1ccc(O)c(O)c1 [3,4-dihydroxybenzoic acid]
Conditions	Molar enthalpy of transition or fusion [kcal/mol]
[1]	8.13

Conditions	vapor or sublimation pressure [kPa]
381.8 K, Crystal, Torsion effusion method	6e-05
383 K, Crystal, Torsion effusion method	6.7e-05
384.5 K, Crystal, Torsion effusion method	7.7e-05
385.6 K, Crystal, Torsion effusion method	8.7e-05
387.2 K, Crystal, Torsion effusion method	0.000104
388.6 K, Crystal, Torsion effusion method	0.000117
390 K, Crystal, Torsion effusion method	0.000143
391.4 K, Crystal, Torsion effusion method	0.00016
392.8 K, Crystal, Torsion effusion method	0.000191
394.2 K, Crystal, Torsion effusion method	0.000216
395.4 K, Crystal, Torsion effusion method	0.000251
396.9 K, Crystal, Torsion effusion method	0.000286
398.3 K, Crystal, Torsion effusion method	0.00033
399.8 K, Crystal, Torsion effusion method	0.000377
401.2 K, Crystal, Torsion effusion method	0.000465
402.6 K, Crystal, Torsion effusion method	0.000533
404 K, Crystal, Torsion effusion method	0.00061
405.4 K, Crystal, Torsion effusion method	0.000701
406.8 K, Crystal, Torsion effusion method	0.000804
407.7 K, Crystal, Torsion effusion method	0.000876
408.9 K, Crystal, Torsion effusion method	0.000997
485.2 K, Liquid, Non-isothermal TG	0.819
485.8 K, Liquid, Non-isothermal TG	0.807
486.2 K, Liquid, Non-isothermal TG	0.892
486.8 K, Liquid, Non-isothermal TG	0.868
487.2 K, Liquid, Non-isothermal TG	0.933
487.7 K, Liquid, Non-isothermal TG	0.902
488.1 K, Liquid, Non-isothermal TG	0.974
488.4 K, Liquid, Isothermal TG	0.983
488.7 K, Liquid, Non-isothermal TG	0.967
488.8 K, Liquid, Isothermal TG	1.007
489.1 K, Liquid, Non-isothermal TG	1.005
489.2 K, Liquid, Isothermal TG	1.027
489.6 K, Liquid, Isothermal TG	1.061
489.7 K, Liquid, Non-isothermal TG	1.033
490 K, Liquid, Isothermal TG	1.074
490.1 K, Liquid, Non-isothermal TG	1.129
490.4 K, Liquid, Isothermal TG	1.092
490.7 K, Liquid, Non-isothermal TG	1.087
490.8 K, Liquid, Isothermal TG	1.129
491.1 K, Liquid, Non-isothermal TG	1.188
491.2 K, Liquid, Isothermal TG	1.153
491.6 K, Liquid, Isothermal TG	1.192
491.7 K, Liquid, Non-isothermal TG	1.162
492 K, Liquid, Isothermal TG	1.22
492.2 K, Liquid, Non-isothermal TG	1.221
492.4 K, Liquid, Isothermal TG	1.254
492.7 K, Liquid, Non-isothermal TG	1.286
492.8 K, Liquid, Isothermal TG	1.28
493.1 K, Liquid, Non-isothermal TG	1.327
493.2 K, Liquid, Isothermal TG	1.32
493.6 K, Liquid, Isothermal TG	1.346
493.7 K, Liquid, Non-isothermal TG	1.298
494 K, Liquid, Isothermal TG	1.374
494.1 K, Liquid, Non-isothermal TG	1.375
494.4 K, Liquid, Isothermal TG	1.381
494.7 K, Liquid, Non-isothermal TG	1.365
494.8 K, Liquid, Isothermal TG	1.445
495 K, Liquid, Non-isothermal TG	1.494
495.2 K, Liquid, Isothermal TG	1.477
495.6 K, Liquid, Isothermal TG	1.482
495.7 K, Liquid, Non-isothermal TG	1.435
495.9 K, Liquid, Non-isothermal TG	1.566
496 K, Liquid, Isothermal TG	1.529
496.4 K, Liquid, Isothermal TG	1.557
496.7 K, Liquid, Non-isothermal TG	1.477
496.8 K, Liquid, Isothermal TG	1.584
496.9 K, Liquid, Non-isothermal TG	1.652
497.2 K, Liquid, Isothermal TG	1.607
497.6 K, Liquid, Isothermal TG	1.636
497.7 K, Liquid, Non-isothermal TG	1.634
498 K, Liquid, Isothermal TG	1.682
498 K, Liquid, Non-isothermal TG	1.745
498.4 K, Liquid, Isothermal TG	1.699
498.8 K, Liquid, Isothermal TG	1.728
498.8 K, Liquid, Non-isothermal TG	1.703
499 K, Liquid, Non-isothermal TG	1.71
499.1 K, Liquid, Isothermal TG	1.751
499.5 K, Liquid, Isothermal TG	1.764
499.7 K, Liquid, Non-isothermal TG	1.817
499.9 K, Liquid, Non-isothermal TG	1.882
500 K, Liquid, Isothermal TG	1.815
500.4 K, Liquid, Isothermal TG	1.865
500.7 K, Liquid, Isothermal TG	1.879
500.7 K, Liquid, Non-isothermal TG	1.858
501 K, Liquid, Non-isothermal TG	1.898
501.2 K, Liquid, Isothermal TG	1.914
501.6 K, Liquid, Isothermal TG	1.939
501.7 K, Liquid, Non-isothermal TG	1.899
502 K, Liquid, Isothermal TG	1.945
502 K, Liquid, Non-isothermal TG	1.962
502.4 K, Liquid, Isothermal TG	2.003
502.7 K, Liquid, Non-isothermal TG	1.95
502.8 K, Liquid, Isothermal TG	2.047
503.1 K, Liquid, Non-isothermal TG	2.033
503.8 K, Liquid, Non-isothermal TG	2.014
504.1 K, Liquid, Non-isothermal TG	2.184
504.7 K, Liquid, Non-isothermal TG	2.179
505 K, Liquid, Non-isothermal TG	2.292
505.7 K, Liquid, Non-isothermal TG	2.217

Conditions	Normal melting temperature [°C]
Crystal, DTA	201.8
